Test results from patent publication US9239334B2, “Fatty acid C16: 1N7-palmitoleate a lipokine and biomarker for metabolic status” (PRESIDENT AND FELLOWS OF HARVARD COLLEGE, priority 2008, dated 2016).

Columns and labels:
SCD-1 protein = assay: Immunoblotting of Flag-tagged SCD-1 in hepatocytes; format: cell-based; conditions: CMV promoter construct
Excerpt: FIG. 3F presents data from the immunoblotting of Flag-tagged SCD-1 in hepatocytes treated with control, palmitate and palmitoleate. Anti-tubulin blot was used as loading control. The observations reported herein also raised the possibility that C16:1n7-palmitoleate might be the lipid species responsible, at least in part, for the metabolic activities linked to adipose tissue FABPs. […] Because palmitoleate is nearly ten-times more abundant in the plasma of FABP^−/− mice than is AA (FIG. 2C), it is most likely accounts for the suppression of SCD-1 under physiologically relevant conditions. The effects of palmitoleate on the levels of SCD-1 protein, which is known to have a very short half-life (Heinemann & Ozols, 68 Prostaglandins Leukot. Essent. Fatty Acids 123-33 (2003)), were also examined. […] Maeda et al., 2005.

[1] = system: insulin receptor, IRS-1, IRS-2 and AKT phosphorylation in liver; assay: Insulin signaling in liver of lipid-infused mice (immunoblotting); format: in vivo; conditions: fatty acid:palmitoleate infusion 3.3 μl/min
Excerpt: FIGS. 7A-7G show data on the regulation of insulin signaling and glucose metabolism by palmitoleate. FIG. 7A is the basal and insulin-stimulated phosphorylation of insulin receptor (IR), insulin receptor substrate-1 (IRS-1) and -2 (IRS-2) and AKT in liver of mice infused with vehicle (Veh), TG:palmitoleate (C16:1n7) or TG:palmitate (C16). Representative blots are shown and quantifications on the right are averaged results of three mice in each treatment group. […] Representative blots are shown and quantifications on the right are averaged results of three mice in each treatment group.
The left panel presents the insulin-stimulated phosphorylation of insulin receptor and AKT in liver of mice infused with vehicle or palmitoleate. […] Mice were infused with vehicle or palmitoleate at 3.3 μl/min for six hrs, and insulin (1 U/Kg) was injected through the infusing tubing. Three minutes after insulin injection, tissues were collected and immunoblotting analyses were performed.
The present invention also provides for the regulation of insulin action by increased circulating palmitoleate. To study whether palmitoleate regulates systemic metabolic responses, lipid infusions were administered in conscious mice. Lipid infusion has been used widely to investigate the relationship between plasma FFAs and insulin resistance, but almost all studies using this protocol utilized preparations of natural lipid products containing a variety of fatty acids. Kim et al., 114 J. Clin. Invest. 823-27 (2004); Kim et al., 277 J. Biol. Chem. 32915-22 (2002); Yu et al., 277 J. Biol. Chem. 50230-36 (2002). […]
Samples of 200 μl serum were collected using heparin-coated glass tubes and spun at 13,000 g in a microcentrifuge to separate the plasma. […] Tissue protein lysates was separated with SDS-PAGE gels and phosphorylated or total proteins were detected with the following antibodies: phospho AKT Serine 473, AKT, insulin receptor, phospho-tyrosine (Santa Cruz Biotech.); IRS-1 and IRS-2 (Upstate); phospho-GSK and GSK (Cell Signaling Tech.); phospho-insulin receptor from (Calbiocbem). […]

CCCCCC/C=C\CCCCCCCC(=O)O [palmitoleate, C16:1n7-palmitoleate]
Flag-tagged SCD-1 protein level (SCD-1 protein): significantly increased SCD-1 protein degradation
liver insulin signaling (insulin receptor and AKT activation) [1]: enhanced
